Data published in patent publication US20230058189A1, “QUINOLIN-4-ONE AND 4(1H)-CINNOLINONE COMPOUNDS AND METHODS OF USING SAME” (Frequency Therapeutics, Inc., priority 2019, published 2023).
Converted amounts (≈) assume the structure as drawn.

Test: Caco-2 cell permeability assay
Format: in vitro ADME
Conditions: human, pH 7.4; Caco-2, Papp (B-A)/Papp (A-B); approximate values
Experimental: A Caco-2 cell permeability assay can be used for in vitro prediction of drug permeability and absorption, an important feature for a compound to be useful for methods described herein. The apparent permeability (Papp) of the compounds of the present disclosure were determined in Caco-2 cells to measure the rate of drug transport per surface area of the cell membrane. Further the efflux ratios of the compounds of the present disclosure were measured in Caco-2 cells to determine the apparent permeability coefficient in basolateral to apical direction with respect to the apparent permeability coefficient in apical to basolateral direction.
50 μL and 25 mL of cell culture medium were added to each well of the Transwell insert and reservoir, respectively. The HTS transwell plates were incubated at 37° C., 5% CO2 for 1 hour before cell seeding. Caco-2 cells were diluted to 6.86×10^5 cells/mL with culture medium and 50 μL of cell suspension were dispensed into the filter well of the 96-well HTS Transwell plate. Cells were cultivated for 14-18 days in a cell culture incubator at 37° C., 5% CO295% relative humidity. Cell culture medium was replaced every other day, beginning no later than 24 hours after initial plating.
Medium was removed from the reservoir and each Transwell insert and replaced with prewarmed fresh culture medium. Transepithelial electrical resistance (TEER) across the monolayer was measured using Millicell Epithelial Volt-Ohm measuring system (Millipore, USA). The Plate was returned to the incubator once the measurement was done. The TEER value was calculated according to the following equation: TEER measurement (ohms)×Area of membrane (cm^2)=TEER value (ohm·cm^2).
To prepare the HBSS (25 mM HEPES, pH 7.4), accurately weigh 5.958 g of HEPES and 0.35 g sodium hydrogen carbonate and add into 900 mL of pure water, then sonicate to dissolve the content. Transfer 100 mL of 10× HBSS into the solution, and place the solution on a stirrer, slowly adjust pH with sodium hydrate to 7.4, following with filtering. Add 6 μL of stock solution (10 mM) of test compound or control compound to 24 μL of DMSO into the same well to obtain 2 mM stock solutions. Transfer 3 μL of 2 mM solution into 597 μL of transport buffer in one 96 well plate to prepare the 10 μM compound working solution. Shake the plate at 1000 rpm for 10 min. The final concentration of DMSO in the incubation system was 0.5%. Metoprolol, erythromycin, and cimetidine were used as control compounds.
Assays can be conducted using Caco-2 cells to assay transport of a compound or composition For example, Caco-2 plates prepared as described above were removed from the incubator. Monolayers were washed twice with pre-warmed HBSS (25 mM HEPES, pH 7.4), then the plates were incubated at 37° C. for 30 minutes. To determine the rate of drug transport in the apical to basolateral direction, 108 μL of the working solution was added to the Transwell insert (apical compartment), and 8 μL sample was immediately transferred from the apical compartment to 72 μL transport buffer and 240 μL of acetonitrile containing IS (100 nM alprazolam, 200 nM caffeine and 100 nM tolbutamide) in a new 96-well plate as the initial donor sample (A-B). The samples were then vortexed at 1000 rpm for 10 minutes. The wells in the receiver plate (basolateral compartment) were filled with 300 μL of transport buffer. To determine the rate of drug transport in the basolateral to apical direction, 308 μL of the working solution were added to the receiver plate wells (basolateral compartment), and 8 μL sample was immediately transferred from the basolateral compartment to 72 μL transport buffer and 240 μL of acetonitrile containing IS (100 nM alprazolam, 200 nM caffeine and 100 nM tolbutamide) into a new 96-well plate as the initial donor sample (B-A), then Vortexed at 1000 rpm for 10 minutes. The Transwell insert (apical compartment) was filled with 100 μL of transport buffer. […]

SMILES | efflux ratio at 2 h, 10 µM
CCn1cc(C(=O)O)c(=O)c2c(N)c(F)c(NCCN[C@@H]3C[C@]34CCc3ccccc34)cc21 (relative stereo) [Compound I-81] | 0.59
CCn1cc(C(N)=O)c(=O)c2c(N)c(F)c(NCCN[C@H]3C[C@@H]3c3ccccc3)cc21 (relative stereo) [Compound I-83] | 1.3
CCn1cc(C#N)c(=O)c2c(N)c(F)c(NCCN[C@@H]3C[C@H]3c3ccccc3)cc21 (relative stereo) [Compound I-84] | 2.1
Cn1cc(C(=O)O)c(=O)c2c(N)c(F)c(NCCN[C@@H]3C[C@H]3c3ccccc3)cc21 (relative stereo) [Compound I-86] | 1.4
CCCn1cc(C(=O)O)c(=O)c2c(N)c(F)c(NCCN[C@@H]3C[C@H]3c3ccccc3)cc21 (relative stereo) [Compound I-87] | 1.4
CCn1cc(C(=O)O)c(=O)c2c(N)c(F)c(N[C@@H]3C[C@H]3c3ccccc3)cc21 (single isomer, unassigned) [Compound I-20] | 0.29
CCn1cc(C(=O)O)c(=O)c2cc(F)c(NC3CCCCC3)cc21 [Compound I-1] | 0.47
CCn1cc(C(=O)O)c(=O)c2c(N)c(F)c(NC3CCOCC3)cc21 [Compound I-8] | 3.02
CCn1cc(C(=O)O)c(=O)c2c(N)c(F)c(NC3CCCC3)cc21 [Compound I-9] | 0.56
CCn1cc(C(=O)O)c(=O)c2c(N)c(F)c(NC3CCc4ccccc43)cc21 (centres unmarked) [Compound I-10] | 0.56
CCn1cc(C(=O)O)c(=O)c2c(N)c(F)c(NC3Cc4ccccc4C3)cc21 [Compound I-11] | 0.53
CCn1cc(C(=O)O)c(=O)c2c(N)c(F)c(NC3CCC3)cc21 [Compound I-12] | 0.72

Same assay, conditions: human, pH 7.4; Caco-2, apical to basolateral, 10 μM, 2 hours; approximate values

SMILES | Papp A→B at 2 h, 10 μM [×10⁻⁶ cm/s]
CCn1cc(C(=O)O)c(=O)c2c(N)c(F)c(NCCN[C@@H]3C[C@]34CCc3ccccc34)cc21 (relative stereo) [Compound I-81] | 5.9
CCn1cc(C(N)=O)c(=O)c2c(N)c(F)c(NCCN[C@H]3C[C@@H]3c3ccccc3)cc21 (relative stereo) [Compound I-83] | 5.1
CCn1cc(C#N)c(=O)c2c(N)c(F)c(NCCN[C@@H]3C[C@H]3c3ccccc3)cc21 (relative stereo) [Compound I-84] | 4.1
Cn1cc(C(=O)O)c(=O)c2c(N)c(F)c(NCCN[C@@H]3C[C@H]3c3ccccc3)cc21 (relative stereo) [Compound I-86] | 5
CCCn1cc(C(=O)O)c(=O)c2c(N)c(F)c(NCCN[C@@H]3C[C@H]3c3ccccc3)cc21 (relative stereo) [Compound I-87] | 4.7
CCn1cc(C(=O)O)c(=O)c2c(N)c(F)c(N[C@@H]3C[C@H]3c3ccccc3)cc21 (single isomer, unassigned) [Compound I-20] | 6.1
CCn1cc(C(=O)O)c(=O)c2cc(F)c(NC3CCCCC3)cc21 [Compound I-1] | 31
CCn1cc(C(=O)O)c(=O)c2c(N)c(F)c(NC3CCOCC3)cc21 [Compound I-8] | 11
CCn1cc(C(=O)O)c(=O)c2c(N)c(F)c(NC3CCCC3)cc21 [Compound I-9] | 3.4
CCn1cc(C(=O)O)c(=O)c2c(N)c(F)c(NC3CCc4ccccc43)cc21 (centres unmarked) [Compound I-10] | 6.3
CCn1cc(C(=O)O)c(=O)c2c(N)c(F)c(NC3Cc4ccccc4C3)cc21 [Compound I-11] | 5.5
CCn1cc(C(=O)O)c(=O)c2c(N)c(F)c(NC3CCC3)cc21 [Compound I-12] | 21

Test: Thermodynamic aqueous solubility at pH 7.4
Format: physicochemical
Conditions: aqueous buffer, thermodynamic from solid, phosphate buffer pH 7.4, 25° C., approximate values, read-out: Concentration (thermodynamic aqueous solubility)
Experimental: The aqueous thermodynamic solubilities of the compounds of the present disclosure were measured at pH 7.4.
Determining suitability for use of a compound, e.g., as a therapeutic agent can include determining the thermodynamic solubility of the compound. An example of this determination follows: Accurately weigh about 1 mg of the powder of each compound into a glass insert vial and phosphate buffer into each vial of a capless Solubility Sample plate with the volume of 1 mL per mg. Next, add one stir stick to each vial and seal with a molded PTDE/SIL 96-Well Plate Cover. Transfer the Solubility Sample plate to an Eppendorf Thermomixer Comfort plate shaker and shake the plate at 25° C. at 1,100 rpm for 24 hours. At the end of the incubation, open the cover and remove the stir sticks using a big magnet and transfer the samples from the Solubility Sample plate into the filter plate. Using the vacuum manifold, all the samples were filtered. An aliquot of 100 μL was transferred from filtrate to a new 96-well plate by addition of 900 μL of a mixture of H2O and acetonitrile containing an internal standard (1:1) (10 fold) and 10 μL of the diluted solution was pipetted into a new 96-well plate by addition of 990 μL of a mixture of H2O and acetonitrile containing internal standard (1:1) (1,000 fold). The dilution factor may be changed according to the solubility value and the LC/MS signal response.
To prepare standards for the assay, accurately weigh about 1 mg of the powder of each compound into a glass insert vial, add DMSO into each vial of the Standard Plate with the volume of 1 mL per mg to obtain the 1 mg/mL STD sample. Aliquots of 10 μL were taken from 1 mg/mL STD sample to a new 96-well plate followed by addition of 990 μL of a mixture of H2O and acetonitrile containing internal standard (1:1) to obtain 10 μg/mL STD and then 10 μL aliquots were taken from 10 μg/mL sample to a new 96-well plate followed by addition of 990 μL of a mixture of H2O and acetonitrile containing internal standard (1:1) to obtain 0.1 μg/mL STD. The concentration of the standard sample may be changed according to the LC/MS signal response.
The samples were analyzed and quantified against the standard of known concentration using LC/MS/MS. The solubility of the test compound was calculated as follows: [Sample]=Area Ratio sample×DF sample×[STD]/Area Ratio STD DF means the dilution factor. Any value of the compounds that is not within the specified limits was rejected and the experiment was repeated.

SMILES | solubility thermodynamic at 24 h [µM]
CCn1cc(C(=O)O)c(=O)c2c(N)c(F)c(NCCN[C@@H]3C[C@]34CCc3ccccc34)cc21 (relative stereo) [Compound I-81] | 1.2 (≈ 0.541 µg/mL)
CCn1cc(C(N)=O)c(=O)c2c(N)c(F)c(NCCN[C@H]3C[C@@H]3c3ccccc3)cc21 (relative stereo) [Compound I-83] | 9.6 (≈ 4.07 µg/mL)
CCn1cc(C#N)c(=O)c2c(N)c(F)c(NCCN[C@@H]3C[C@H]3c3ccccc3)cc21 (relative stereo) [Compound I-84] | 49 (≈ 19.9 µg/mL)
Cn1cc(C(=O)O)c(=O)c2c(N)c(F)c(NCCN[C@@H]3C[C@H]3c3ccccc3)cc21 (relative stereo) [Compound I-86] | 23 (≈ 9.44 µg/mL)
CCCn1cc(C(=O)O)c(=O)c2c(N)c(F)c(NCCN[C@@H]3C[C@H]3c3ccccc3)cc21 (relative stereo) [Compound I-87] | 8 (≈ 3.51 µg/mL)
CCn1cc(C(=O)O)c(=O)c2c(N)c(F)c(N[C@@H]3C[C@H]3c3ccccc3)cc21 (single isomer, unassigned) [Compound I-20] | < 0.3
CCn1cc(C(=O)O)c(=O)c2c(N)c(F)c(NC3CCOCC3)cc21 [Compound I-8] | 35 (≈ 12.2 µg/mL)
CCn1cc(C(=O)O)c(=O)c2c(N)c(F)c(NC3CCCC3)cc21 [Compound I-9] | < 1.8
CCn1cc(C(=O)O)c(=O)c2c(N)c(F)c(NC3Cc4ccccc4C3)cc21 [Compound I-11] | < 0.08
CCn1cc(C(=O)O)c(=O)c2c(N)c(F)c(NC3CCC3)cc21 [Compound I-12] | 2.7 (≈ 0.862 µg/mL)
CCn1cc(C(=O)O)c(=O)c2c(N)cc(NCCc3ccccc3)c(F)c21 [Compound I-65] | 0.11 (≈ 0.0406 µg/mL)
